Bridge positions count the residues as written; N and C are the ends. Peptide text beside a SMILES is read from it.
Columns and labels:
[1] = average, % of fresh, 10 IC patients and 5 controls, n = 15/8/6/9, hepcidin-20 unreliable (additional peak); for Hepcidin level after one week at -20°C, EDTA plasma: CV (Hep-25/-24/-22/-20) 11/12/11/28
Protocol: (§1) Samples were used for measurement of hepcidin between 4–7 hrs after blood drawing and/or pooled and/or stored in aliquots at various temperatures for prolonged periods of time.
(§2) Fresh samples were measured within 2–4 hrs hours after blood drawing and stored in aliquots at various temperatures for prolonged incubation.
(§3) Mass-to-charge (m/z) spectra were generated by using MALDI-TOF MS (Microflex LT, Bruker Daltonics). Spectra were analyzed by using Bruker Daltonics FlexAnalysis software. […] Total hepcidin concentration was defined as the sum of hepcidin-25, -24, -22, and -20 concentrations.
(§4) Using the novel heavy hepcidin-25 internal standard, we assessed changes in hepcidin-25 and the smaller isoforms in various samples containing various anticoagulants ex vivo at room temperature (RT), 4°C, −20°C and −80°C. More specifically, changes in hepcidin concentrations relative to those found in freshly collected samples were determined i) at storage at RT and 4°C on day 0 (fresh samples), 1 (14–22 hrs), 2, 3, and 7 days after sampling/storage, ii) at −20°C after 1 week, and after 1, 4 and 6 months of storage and iii) at −80°C at after 6 months of storage.

[2] = target: T1, green fluorescent protein (GFP)-fused human ferroportin (Homo sapiens, UniProt Q9NP59); experiment: Hepcidin bioactivity assay: GFP-ferroportin internalization and degradation; type: cell-based; settings: for potency as inducer of ferroportin degradation: synthetic peptides, compared with hepcidin-25
T1 construct: expressed in transfected cells
T1 sequence (Q9NP59 1-571): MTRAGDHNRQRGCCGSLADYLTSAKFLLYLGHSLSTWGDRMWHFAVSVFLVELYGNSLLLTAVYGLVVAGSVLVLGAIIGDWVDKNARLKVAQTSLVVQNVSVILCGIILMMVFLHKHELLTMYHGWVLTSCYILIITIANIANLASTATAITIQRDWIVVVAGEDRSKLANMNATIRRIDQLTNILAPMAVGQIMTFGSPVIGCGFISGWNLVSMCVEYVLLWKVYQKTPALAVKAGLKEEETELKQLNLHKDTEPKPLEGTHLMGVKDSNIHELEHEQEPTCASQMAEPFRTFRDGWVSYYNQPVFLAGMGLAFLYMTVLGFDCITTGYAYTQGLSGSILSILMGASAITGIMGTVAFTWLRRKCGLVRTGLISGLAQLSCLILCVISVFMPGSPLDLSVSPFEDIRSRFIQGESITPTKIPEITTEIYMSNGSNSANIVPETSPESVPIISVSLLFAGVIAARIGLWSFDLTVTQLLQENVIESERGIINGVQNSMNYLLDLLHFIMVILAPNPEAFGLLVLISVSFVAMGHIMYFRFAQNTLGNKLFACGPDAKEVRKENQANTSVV
Description: A stable cell line engineered for inducible expression of green fluorescent protein (GFP)-fused human ferroportin was used as a test system to determine hepcidin-24 activity relative to hepcidin-25, 22 and 20. In this cell system, ferroportin internalization and degradation provided a means to quantify hepcidin activity. The assay was implemented basically as described by Nemeth et al., [33] except that fluorescence was quantified in triplicate wells on a microplate reader. To determine EC50 values for hepcidin-25 and hepcidin-24, a curve was fitted by nonlinear regression with a four parameter logistic equation using Prism v5 (GraphPad).
Figure 5 Hepcidin-mediated ferroportin internalization. Different concentrations of synthetic hepcidin-25, -24, -22 and -20 (indicated in nM on the horizontal axis) were added to the growth medium of a stable cell line that expresses green fluorescent protein-fused ferroportin (GFP-FPN). Hepcidin-mediated GFP-FPN internalization and degradation was quantified by measuring cellular fluorescence levels in arbitrary units.

[3] = Stability of hepcidin in plasma/serum at room temperature (WCX-TOF MS); type: in vitro ADME, human; settings: for Hepcidin level after one week at RT / Hepcidin level after one day at RT: % of fresh sample, human heparin plasma, 19 IC patients + 5 controls, results <1.0 nM removed, WCX-TOF MS, hepcidin-25^+40 internal standard, n = 24/15/13/18/11; for Hepcidin level after one week at RT: CV (Hep-25/-24/-22/-20/Total) 23/29/29/38/17; for Hepcidin level after one day at RT: CV (Hep-25/-24/-22/-20/Total) 8/21/14/25/5; for Hepcidin level after one week at RT, without protease inhibitors / Hepcidin level after one day at RT, without protease inhibitors: results <1 nM excluded; for Hepcidin level after one week at RT, without protease inhibitors: CV (Hep-25/-24/-22/-20) 30/31/23/41; for Hepcidin level after one day at RT, without protease inhibitors: CV (Hep-25/-24/-22/-20) 13/20/11/11; for remaining at 168 h / remaining at 1 day: human; for remaining at 168 h: read-out: Hepcidin level after one week at RT, with protease inhibitors; for remaining at 1 day: read-out: Hepcidin level after one day at RT, with protease inhibitors
Protocol: Spectra were analyzed by using Bruker Daltonics FlexAnalysis software.
To assess the stability of hepcidin in serum and plasma matrices, we kept samples from intensive care patients (n = 20) and healthy controls (n = 5) at room temperature for 0–7 days followed by WCX-TOF MS analysis using the hepcidin-25^+40 internal standard. […] For the samples at day 1 and day 7, the mean decrease in hepcidin-25 for the 5 controls and 20 intensive care patients was 90% (CV, 8% ) and 55% (CV, 23%), respectively (Table 3).

[4] = in vitro; settings: human
Protocol: as §1, §2, §3, §4

[5] = average, % of fresh, 10 IC patients and 5 controls; for Hepcidin level after one day at 4°C, EDTA plasma: CV (Hep-25/-24/-22/-20) 11/6/11/22
Protocol: as §1, §2, §3, §4

[6] = in vitro; settings: human; remark: listed apart in the source
Protocol: as §1, §2, §3, §4

[7] = average, % of fresh, 7 days, heparin plasma, 10 IC patients, n = 10/8/7/8
[8] = average, % of fresh, heparin plasma, 10 IC patients, n = 10/8/7/8
[9] = average, % of fresh, 7 days, heparin plasma, 10 IC patients, Complete Mini (Roche), CV (Hep-25/-24/-22/-20) 25/35/9/25, n = 10/8/7/8
[10] = average, % of fresh, heparin plasma, 10 IC patients, Complete Mini (Roche), 1 tablet in 200 µL PBS, 20 µL per 1 ml plasma, CV (Hep-25/-24/-22/-20) 8/30/4/14, n = 10/8/7/8
[11] = results <1.0 nM deleted, n = 15/8/6/9
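For Hepcidin level after one month at -20°C, EDTA plasma in this document: hepcidin in stored plasma or serum quantified by MALDI-TOF MS against a heavy hepcidin-25 internal standard, expressed relative to concentrations in freshly collected samples.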
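For Hepcidin level after one week at -20°C, EDTA plasma in this document: hepcidin in stored plasma or serum quantified by MALDI-TOF MS against a heavy hepcidin-25 internal standard, expressed relative to concentrations in freshly collected samples.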

Structure (SMILES)	Hepcidin level after one week at -20°C, EDTA plasma [1] [%]	activity relative to hepcidin-24 (fold lower) [2]	potency as inducer of ferroportin degradation [2]	Hepcidin level after one week at RT ([3]; average, 7 days) [%]	Hepcidin level after one day at RT ([3]; average) [%]	Hepcidin level after one week at RT, without protease inhibitors [3, 7] [%]	Hepcidin level after one day at RT, without protease inhibitors [3, 8] [%]	remaining at 168 h [3, 9] [%]	remaining at 1 day [3, 10] [%]	remaining at 672 h ([4]; heparin plasma) [%]	Hepcidin level after one day at 4°C, EDTA plasma [5, 11] [%]	remaining at 168 h ([6]; EDTA plasma) [%]	remaining at 168 h ([6]; heparin plasma) [%]	remaining at 672 h ([4]; EDTA plasma) [%]	also measured
CC[C@H](C)[C@H](N)C(=O)N[C@H]1CSSC[C@@H](C(=O)N[C@@H](CCCCN)C(=O)N[C@H](C(=O)O)[C@@H](C)O)NC(=O)[C@@H]2CSSC[C@H](NC(=O)[C@H](Cc3ccccc3)NC(=O)[C@H]([C@@H](C)CC)NC1=O)C(=O)N[C@H]1CSSC[C@H](NC(=O)[C@H](CCCCN)NC(=O)[C@H](CO)NC(=O)[C@H](CCCNC(=N)N)NC(=O)[C@H](Cc3c[nH]cn3)NC(=O)[C@@H]3CSSC[C@H](NC(=O)CNC1=O)C(=O)N3)C(=O)NCC(=O)N[C@@H](CCSC)C(=O)N2 [Hepcidin-20] (H-ICIFCCGCCHRSKCGMCCKT-OH; disulfide 2-18, 5-17, 6-14, 8-9 (inferred); N-terminus and C-terminus assumed)	183	at least 10 fold	significantly less potent inducer of ferroportin degradation than hepcidin-25	138	115	164	141	114	118	102	94				Hepcidin level after one month at -20°C, EDTA plasma ([1]; 4 weeks, CV (Hep-25/-24/-22/-20) 9/11/19/40): 210%; level of isoform emerging in control samples at RT ([3]; heparin plasma, healthy controls, 0–7 days): below 1 nM; Hepcidin level after one week at 4°C, heparin plasma ([5]; 7 days, CV (Hep-25/-24/-22/-20) 5/8/8/21, n = 15/7/6/10): 114%; Hepcidin level after one week at 4°C, EDTA plasma ([5]; 7 days, CV (Hep-25/-24/-22/-20) 9/8/18/21, n = 15/8/6/9, hepcidin-20 in stored EDTA plasma unreliable (additional peak)): 165%
CC[C@H](C)[C@@H]1NC(=O)[C@@H](NC(=O)[C@@H](NC(=O)[C@@H]2CCCN2C(=O)[C@H](Cc2ccccc2)NC(=O)[C@H](Cc2c[nH]cn2)NC(=O)[C@@H](N)[C@@H](C)O)[C@@H](C)CC)CSSC[C@@H](C(=O)N[C@@H](CCCCN)C(=O)N[C@H](C(=O)O)[C@@H](C)O)NC(=O)[C@@H]2CSSC[C@H](NC(=O)[C@H](Cc3ccccc3)NC1=O)C(=O)N[C@H]1CSSC[C@H](NC(=O)[C@H](CCCCN)NC(=O)[C@H](CO)NC(=O)[C@H](CCCNC(=N)N)NC(=O)[C@H](Cc3c[nH]cn3)NC(=O)[C@@H]3CSSC[C@H](NC(=O)CNC1=O)C(=O)N3)C(=O)NCC(=O)N[C@@H](CCSC)C(=O)N2 [Hepcidin-24] (H-THFPICIFCCGCCHRSKCGMCCKT-OH; disulfide 6-22, 9-21, 10-18, 12-13)	96		significantly less potent inducer of ferroportin degradation than hepcidin-25	104	120	116	128			114		113	106	91	EC50 [2]: 192 nM; activity relative to hepcidin-25 (fold lower) ([2]; relative to hepcidin-25): 10 fold; Hepcidin level after one week at RT, with protease inhibitors [3, 9]: 133%; Hepcidin level after one day at RT, with protease inhibitors [3, 10]: 122%
CC[C@H](C)[C@@H]1NC(=O)[C@@H](NC(=O)[C@@H](NC(=O)[C@@H]2CCCN2C(=O)[C@@H](N)Cc2ccccc2)[C@@H](C)CC)CSSC[C@@H](C(=O)N[C@@H](CCCCN)C(=O)N[C@H](C(=O)O)[C@@H](C)O)NC(=O)[C@@H]2CSSC[C@H](NC(=O)[C@H](Cc3ccccc3)NC1=O)C(=O)N[C@H]1CSSC[C@H](NC(=O)[C@H](CCCCN)NC(=O)[C@H](CO)NC(=O)[C@H](CCCNC(=N)N)NC(=O)[C@H](Cc3c[nH]cn3)NC(=O)[C@@H]3CSSC[C@H](NC(=O)CNC1=O)C(=O)N3)C(=O)NCC(=O)N[C@@H](CCSC)C(=O)N2 [Hepcidin-22] (H-FPICIFCCGCCHRSKCGMCCKT-OH; disulfide 4-20, 7-19, 8-16, 10-11)		at least 10 fold	significantly less potent inducer of ferroportin degradation than hepcidin-25	150	127	160	135	117	105	89	104	106	96	96	remaining at 1 week ([4]; EDTA plasma): 98%; Hepcidin level after one day at 4°C, heparin plasma ([5]; results <1.0 nM deleted, CV (Hep-25/-24/-22/-20) 7/5/13/20, n = 15/7/6/10): 104%

From paper PMC3790851, “Improved Mass Spectrometry Assay For Plasma Hepcidin: Detection and Characterization of a Novel Hepcidin Isoform” (PLoS ONE, 2013)
